Several values for one entry are separate records, joined by “and”; a condition that tells them apart may be missing. Equal values may be shown once. Where a SMILES comes first, the peptide text is derived from it. [ ]: non-standard residue; d: D form. Hyp = O=C(O)[C@@H]1C[C@@H](O)CN1
Tested on: MMP-3
Experiment: Example 8 main study Luminex, LPS hPBMCs: MMP-3
Format: cell-based, human
Settings: for MMP-3 Concentration: single replicates; for LPS-induced MMP3 (in words): at as low as 5 μM, LPS 5 ug/mL 24 hrs
Experimental: Human PBMCs were pretreated with YY-101, YDE-011, YDE-043 or reference compound; Xiidra® at various concentration (ranging from […] to 500 nM) for 2 h before stimulation. An equal volume of 0.5% DMSO was used as a vehicle control. Then, the cells were treated with LPS at 5 ug/ml, which was selected based on the pilot study. The supernatants from treated cells were harvested at 24 h and placed in a 96 well for Luminex cytokine & chemokine profiling using a Luminex 200 multiplex assay (Luminex; R&D system, USA).
The main study arm with triplicate wells per group in a 24-well plate: • 1. Blank • 2. PBMC: 0.5% DMSO • 3. PBMC+LPS (5 ug/ml) • 4. PBMC+YY-101 500 nM • 5. PBMC+YY-101 50 nM • 6. PBMC+YY-101 5 nM • 7. PBMC+YY-101 0.5 nM • 8. PBMC+LPS (5 ug/ml)+Xiidra® 500 nM • 9. PBMC+LPS (5 ug/ml)+Xiidra® 50 nM • 10. PBMC+LPS (5 ug/ml)+Xiidra® 5 nM • 11. PBMC+LPS (5 ug/ml)+Xiidra® 0.5 nM • 12. PBMC+LPS (5 ug/ml)+Xiidra® 0.05 nM • 13. PBMC+LPS (5 ug/ml)+Xiidra® 0.005 nM • 14. PBMC+LPS (5 ug/ml)+YY-101 500 nM • 15. PBMC+LPS (5 ug/ml)+YY-101 50 nM • 16. PBMC+LPS (5 ug/ml)+YY-101 5 nM • 17. PBMC+LPS (5 ug/ml)+YY-101 0.5 nM • 18. PBMC+LPS (5 ug/ml)+YY-101 0.05 nM • 19. PBMC+LPS (5 ug/ml)+YY-101 0.005 nM • 20. PBMC+LPS (5 ug/ml)+YDE-011 500 nM • 21. PBMC+LPS (5 ug/ml)+YDE-011 50 nM • 22. PBMC+LPS (5 ug/ml)+YDE-011 5 nM • 23. PBMC+LPS (5 ug/ml)+YDE-011 0.5 nM • 24. PBMC+LPS (5 ug/ml)+YDE-011 0.05 nM • 25. PBMC+LPS (5 ug/ml)+YDE-011 0.005 nM • 26. PBMC+LPS (5 ug/ml)+YDE-043 500 nM • 27. PBMC+LPS (5 ug/ml)+YDE-043 50 nM • 28. PBMC+LPS (5 ug/ml)+YDE-043 5 nM • 29. PBMC+LPS (5 ug/ml)+YDE-043 0.5 nM • 30. PBMC+LPS (5 ug/ml)+YDE-043 0.05 nM • 31. PBMC+LPS (5 ug/ml)+YDE-043 0.005 nM
Multiplex assay was used to measure 30 cytokines and chemokines. The 1:200 diluted cell supernatant and serial dilution of the standard were dispensed into a 96 well plate at 50 ul/well. Then, the pre-mixed cocktail of antibody-coated magnetic beads was dispensed at 50 ul/well and incubated at room temperature for 2 h in a horizontal orbital microplate shaker at 800±500 rpm. The beads were washed using a magnetic device to prevent loss. The biotin-antibody was dispensed in 50 ul of each well and incubated at room temperature for 1 h in a shaker at 800±500 rpm. After washing, streptavidin-PE was added at 50 ul/well and incubated at room temperature for 30 min in a shaker under the same conditions. Finally, after washing, wash buffer (100 ul/well) was added to the plate and incubated in a shaker for 2 min. The Luminex™ 200 setting were set according to the manufacturer's protocol. The data was calculated with a standard five-parameter logistic nonlinear regression analysis of the data (xPonent software 4.2, USA). Results were presented as concentration (ng/ml or pg/ml).

[1] = PBMC + LPS(5 ug/ml) + YDE011 0.005 nM
[2] = PBMC + LPS(5 ug/ml) + YDE011 0.05 nM
[3] = PBMC + LPS(5 ug/ml) + YDE011 0.5 nM
[4] = PBMC + LPS(5 ug/ml) + YDE011 5 nM
[5] = PBMC + LPS(5 ug/ml) + YDE011 50 nM
[6] = PBMC + LPS(5 ug/ml) + YDE011 500 nM
[7] = PBMC + LPS(5 ug/ml) + YDE043 0.005 nM
[8] = PBMC + LPS(5 ug/ml) + YDE043 0.05 nM
[9] = PBMC + LPS(5 ug/ml) + YDE043 0.5 nM
[10] = PBMC + LPS(5 ug/ml) + YDE043 5 nM
[11] = PBMC + LPS(5 ug/ml) + YDE043 50 nM
[12] = PBMC + LPS(5 ug/ml) + YDE043 500 nM
[13] = PBMC + LPS(5 ug/ml) + YY101 0.005 nM
[14] = PBMC + LPS(5 ug/ml) + YY101 0.05 nM
[15] = PBMC + LPS(5 ug/ml) + YY101 0.5 nM
[16] = PBMC + LPS(5 ug/ml) + YY101 5 nM
[17] = PBMC + LPS(5 ug/ml) + YY101 50 nM
[18] = PBMC + LPS(5 ug/ml) + YY101 500 nM

Compound: CC(C)C[C@H](NC(=O)CNC(=O)[C@H](CC(C)C)NC(=O)[C@H](CCC(N)=O)NC(=O)CNC(=O)[C@@H]1C[C@@H](O)CN1)C(=O)N[C@@H](C)C(=O)NCC(=O)N1CCC[C@H]1C(=O)N[C@@H](CCCCN)C(=O)O [YDE-011] (H-[Hyp]GQLGLAGPK-OH)
- MMP-3 Concentration, Mean [1]: 7336.4 pg/mL
- MMP-3 Concentration [1]: 7512.0 pg/mL and 7323.6 pg/mL and 7173.5 pg/mL
- MMP-3 Concentration, Mean [2]: 7638.4 pg/mL
- MMP-3 Concentration [2]: 7474.3 pg/mL and 7928.9 pg/mL and 7512.0 pg/mL
- MMP-3 Concentration, Mean [3]: 7136.1 pg/mL
- MMP-3 Concentration [3]: 7248.5 pg/mL and 7098.6 pg/mL and 7061.2 pg/mL
- MMP-3 Concentration, Mean [4]: 6802.1 pg/mL
- MMP-3 Concentration [4]: 6282.7 pg/mL and 6800.1 pg/mL and 7323.6 pg/mL
- MMP-3 Concentration, Mean [5]: 6735.1 pg/mL
- MMP-3 Concentration [5]: 7248.5 pg/mL and 7474.3 pg/mL and 5482.5 pg/mL
- MMP-3 Concentration, Mean [6]: 6625.8 pg/mL
- MMP-3 Concentration [6]: 7776.9 pg/mL and 5374.6 pg/mL and 6725.8 pg/mL
- LPS-induced MMP3 (in words): significantly reduced

Compound: CC(C)C[C@H](NC(=O)[C@H](CCC(N)=O)NC(=O)CNC(=O)[C@@H]1C[C@@H](O)CN1)C(=O)NCC(=O)O [YDE-043] (H-[Hyp]GQLG-OH; N-terminus and C-terminus assumed)
- MMP-3 Concentration, Mean [7]: 7677.2 pg/mL
- MMP-3 Concentration [7]: 7173.5 pg/mL and 7776.9 pg/mL and 8081.3 pg/mL
- MMP-3 Concentration, Mean [8]: 7136.1 pg/mL
- MMP-3 Concentration [8]: 7061.2 pg/mL and 7248.5 pg/mL and 7098.6 pg/mL
- MMP-3 Concentration, Mean [9]: 7173.5 pg/mL
- MMP-3 Concentration [9]: 7098.6 pg/mL and 7248.5 pg/mL and 7173.5 pg/mL
- MMP-3 Concentration, Mean [10]: 7424.0 pg/mL
- MMP-3 Concentration [10]: 7474.3 pg/ml (2×) and 7323.6 pg/ml
- MMP-3 Concentration, Mean [11]: 7337.3 pg/mL
- MMP-3 Concentration [11]: 7701.1 pg/mL and 7398.9 pg/mL and 6911.8 pg/mL
- MMP-3 Concentration, Mean [12]: 7311.7 pg/mL
- MMP-3 Concentration [12]: 7098.6 pg/mL and 7663.2 pg/mL and 7173.5 pg/mL
- LPS-induced MMP3 (in words): significantly reduced

Compound: CC(C)C[C@H](NC(=O)CNC(=O)[C@H](CC(=O)O)NC(=O)[C@H](CCC(N)=O)NC(=O)CNC(=O)[C@@H]1C[C@@H](O)CN1)C(=O)N[C@@H](C)C(=O)NCC(=O)N1CCC[C@H]1C(=O)N[C@@H](CCCCN)C(=O)O [YY-101] (H-[Hyp]GQDGLAGPK-OH; N-terminus and C-terminus assumed)
- MMP-3 Concentration, Mean [13]: 7549.8 pg/mL
- MMP-3 Concentration [13]: 7549.7 pg/mL and 7474.3 pg/mL and 7625.3 pg/mL
- MMP-3 Concentration, Mean [14]: 8082.3 pg/mL
- MMP-3 Concentration [14]: 7776.9 pg/mL and 8541.1 pg/mL and 7928.9 pg/mL
- MMP-3 Concentration, Mean [15]: 7751.6 pg/mL
- MMP-3 Concentration [15]: 7701.1 pg/ml and 7776.9 pg/ml (2×)
- MMP-3 Concentration, Mean [16]: 7905.9 pg/mL
- MMP-3 Concentration [16]: 7549.7 pg/ml (2×) and 8618.2 pg/ml
- MMP-3 Concentration, Mean [17]: 7777.4 pg/mL
- MMP-3 Concentration [17]: 7549.7 pg/mL and 7701.1 pg/mL and 8081.3 pg/mL
- MMP-3 Concentration, Mean [18]: 7752.0 pg/mL
- MMP-3 Concentration [18]: 8043.1 pg/mL and 7663.2 pg/mL and 7549.7 pg/mL
- MMP-3 Concentration, Mean (PBMC + YY101 0.5 nM, no LPS): 6246.3 pg/mL
- MMP-3 Concentration (PBMC + YY101 0.5 nM, no LPS): 6062.8 pg/mL and 6429.9 pg/mL
- MMP-3 Concentration, Mean (PBMC + YY101 5 nM, no LPS): 6246.0 pg/mL
- MMP-3 Concentration (PBMC + YY101 5 nM, no LPS): 6172.6 pg/mL and 6319.4 pg/mL
- MMP-3 Concentration, Mean (PBMC + YY101 0.05 uM, no LPS): 6374.8 pg/mL
- MMP-3 Concentration (PBMC + YY101 0.05 uM, no LPS): 6503.7 pg/mL and 6245.9 pg/mL
- MMP-3 Concentration, Mean (PBMC + YY101 50 nM, no LPS): 6118.0 pg/mL
- MMP-3 Concentration (PBMC + YY101 50 nM, no LPS): 6282.7 pg/mL and 5953.3 pg/mL
- MMP-3 Concentration, Mean (PBMC + YY101 500 nM, no LPS): 6356.3 pg/mL
- MMP-3 Concentration (PBMC + YY101 500 nM, no LPS): 6282.7 pg/mL and 6429.9 pg/mL
- LPS-induced MMP3 (in words): significantly reduced
